Reference: ChEMBL document CHEMBL2401728, “An unexpected Dimroth rearrangement leading to annelated thieno[3,2-d][1,2,3]triazolo[1,5-a]pyrimidines with potent antitumor activity” (Eur J Med Chem, 2013)

How the values were obtained:
[1] = Cytotoxicity against human prostate cancer cells assessed as cellular growth at 10 uM after 48 hrs by SRB assay relative to control; assay type: functional, Cancer cell lines
[2] = Cytotoxicity against human non-small cell lung cancer cells assessed as cellular growth at 10 uM after 48 hrs by SRB assay relative to control; assay type: functional, Cancer cell lines
[3] = Cytotoxicity against human breast cancer cells assessed as cellular growth at 10 uM after 48 hrs by SRB assay relative to control; assay type: functional, Cancer cell lines
[4] = Cytotoxicity against human ovarian cancer cells assessed as cellular growth at 10 uM after 48 hrs by SRB assay relative to control; assay type: functional, Cancer cell lines
[5] = Cytotoxicity against human melanoma cells assessed as cellular growth at 10 uM after 48 hrs by SRB assay relative to control; assay type: functional, Melanoma cell
[6] = Cytotoxicity against human colon cancer cells assessed as cellular growth at 10 uM after 48 hrs by SRB assay relative to control; assay type: functional, Cancer cell lines
[7] = Cytotoxicity against human leukemia cells assessed as cellular growth at 10 uM after 48 hrs by SRB assay relative to control; assay type: functional, Leukemia cell
[8] = Cytotoxicity against human renal cancer cells assessed as cellular growth at 10 uM after 48 hrs by SRB assay relative to control; assay type: functional, Cancer cell lines
[9] = Cytotoxicity against human CNS cancer cells assessed as cellular growth at 10 uM after 48 hrs by SRB assay relative to control; assay type: functional, Cancer cell lines
[10] = test system: CCRF-CEM; test: Cytotoxicity against human CCRF-CEM cells after 48 hrs by SRB assay; assay type: functional
[11] = test system: HT-29; test: Cytotoxicity against human HT-29 cells after 48 hrs by SRB assay; assay type: functional; settings: HT-29, 48 h, read-out: pLC50 (the source's name) (converted)
[12] = test system: SNB-19; test: Cytotoxicity against human SNB19 cells after 48 hrs by SRB assay; assay type: functional; settings: SNB-19, 48 h, read-out: pLC50 (the source's name) (converted)
[13] = Cytotoxicity against human EKVX cells after 48 hrs by SRB assay; assay type: functional; settings: read-out: pLC50 (the source's name) (converted)
[14] = test system: K562; test: Cytotoxicity against human K562 cells after 48 hrs by SRB assay; assay type: functional; settings: K562, 48 h, read-out: pLC50 (the source's name) (converted)
[15] = test system: A549; test: Cytotoxicity against human A549 cells after 48 hrs by SRB assay; assay type: functional; settings: A549, 48 h, read-out: pLC50 (converted)
[16] = test system: MDA-MB-435; test: Cytotoxicity against human MDA-MB-435 cells after 48 hrs by SRB assay; assay type: functional; settings: MDA-MB-435, 48 h, read-out: pLC50 (the source's name) (converted)
[17] = test system: MCF7; test: Cytotoxicity against human MCF7 cells after 48 hrs by SRB assay; assay type: functional; settings: MCF7, 48 h
[18] = test system: RPMI-8226; test: Cytotoxicity against human RPMI8226 cells after 48 hrs by SRB assay; assay type: functional; settings: RPMI-8226, 48 h, read-out: pLC50 (converted)
[19] = test system: MOLT-4; test: Cytotoxicity against human MOLT4 cells after 48 hrs by SRB assay; assay type: functional; settings: MOLT-4, 48 h, read-out: pLC50 (the source's name) (converted)
[20] = test system: HCC 2998; test: Cytotoxicity against human HCC2998 cells after 48 hrs by SRB assay; assay type: functional; settings: HCC 2998, 48 h, read-out: pLC50 (the source's name) (converted)
[21] = test system: HCT-15; test: Cytotoxicity against human HCT15 cells after 48 hrs by SRB assay; assay type: functional; settings: HCT-15, 48 h, read-out: pTGI (converted)

CN1CCN(CCCn2c(=O)c3sc4ncccc4c3n3nnc(-c4ccccc4)c23)CC1
Activity [1]: 39%
Activity [2]: 14%
Activity [3]: -23%
Activity [4]: 7%
Activity [5]: -78%
Activity [6]: -37%
Activity [7]: -22%
Activity [8]: -14%
Activity [9]: -43%

O=C(CCCn1c(=O)c2sc3ccccc3c2n2nnc(-c3ccccc3)c12)NCCc1c[nH]cn1
Activity [1]: -41%
Activity [2]: -26%
Activity [3]: -5%
Activity [4]: -16%
Activity [5]: -57%
Activity [6]: -49%
TGI ([10]; read-out: pTGI (converted)): 100 µM
Activity [7]: 71%
Activity [8]: -34%
Activity [9]: -18%

O=C(CCCn1c(=O)c2sc3ncccc3c2n2nnc(-c3ccccc3)c12)NCCc1c[nH]cn1
CC50 [11]: > 100 µM
Activity [1]: 46%
CC50 [12]: > 100 µM
CC50 [13]: > 100 µM
Activity [2]: 88%
CC50 [14]: > 100 µM
CC50 [15]: > 100 µM
Activity [3]: 79%
CC50 [16]: > 100 µM
Activity [4]: 59%
Activity [5]: 71%
LC50 ([17]; read-out: pLC50 (converted)): > 100 µM
TGI ([17]; read-out: pTGI (converted)): 100 µM
Activity [6]: 49%
CC50 [18]: > 100 µM
CC50 [19]: > 100 µM
CC50 ([10]; read-out: pLC50 (the source's name) (converted)): > 100 µM
Activity [7]: 61%
CC50 [20]: > 100 µM
Activity [8]: 79%
Activity [9]: 60%
TGI [21]: 100 µM
